# Results from publication PMC11071266, “The putative proton-coupled organic cation antiporter is involved in uptake of triptans into human brain capillary endothelial cells” (Fluids and Barriers of the CNS, 2024).
# “And” between values parts separate entries of the source, which are not always exact repeats. Equal values may be shown once. “Also recorded” adds a separate entry of the source. Read-outs that look alike come from different tables or passages of the source.
# Assays:
# H^+/OC antiporter [1] = assay: Inhibition of [^3H]-pyrilamine uptake into hCMEC/D3 cells; format: cell-based, human
# Experimental: (§1) The immortalized human cerebral microvascular endothelial cell line (hCMEC/D3) was maintained in T75-flasks coated with collagen type I from calf skin (C9791, 18.7 μg/mL) and cultured in EBM®-2 medium (Lonza, Basel, Schweiz) supplemented with 5% (v/v) fetal bovine serum (FBS, 10270, Life Technologies, CA, USA or SH3008803, ThermoFisher Scientific, MA, USA), 100 U/mL penicillin and 100 μg/ml streptomycin, 1 ng/mL human basic fibroblast growth factor (bFGF), 1.4 μM hydrocortisone, 1% (v/v) chemically defined lipid concentrate (ThermoFisher Scientific, MA, USA), 10 mM N-2-hydroxyethylpiperazine-N-2-ethane sulfonic acid (HEPES) and 5 μg/mL ascorbic acid (5% CO2, 37 °C). […] For experiments, cells were seeded into 24-well plates (6.7·10^4 cells/cm^2) and cultured for four continuous days. The cells were used for experiments between passage 3–31.
# (§2) The cells were equilibrated in hHBSS with or without inhibitor for 15 min (37 °C, 90 rpm). The compound of interest was spiked into the hHBSS followed by incubation for a designated time. The timeframe of the initial uptake rate was validated into hCMEC/D3 cells (Fig. 1 and Additional file 1). The experiment was terminated by washing three times with ice-cold HBSS supplemented with 0.0375% (v/v) sodium bicarbonate.
# The inhibitory constant at 50% inhibition (IC50) was determined by fitting the uptake flux (Jss) as function of the logarithmic inhibitor concentration to Eq. 2.2 Jss=Jmin+(Jmax-Jmin)/1+10^logIC50-InH where [I] is the inhibitor concentration, nH is the Hill coefficient.
# The hCMEC/D3 cells were used for [^3H]-pyrilamine inhibition studies between passage 3–6 (pyrilamine, oxycodone), 16–18 (almotriptan), 7–13 (eletriptan), 25–27 (frovatriptan), 3–8 (naratriptan), 16–18 (rizatriptan), 12–14 (sumatriptan), and 14–16 (zolmitriptan).
# The cells were permeabilized using 0.1% (v/v) Triton X-100 in ultrapure water (ELGA, Buckinghamshire, England) for 10 min at room temperature. Thereafter, the cells were scraped off the bottom of the wells, transferred to scintillation vials, and mixed with 2 mL of Ultima Gold 241 TM (Perkin Elmer, MA, USA). The samples were analyzed using a Tri-Carb 2910 TR Liquid Scintillation Analyzer (Perkin Elmer, MA, USA).
# H^+/OC antiporter [2] = assay: Concentration-dependent cellular uptake into hCMEC/D3 cells (Michaelis-Menten kinetics); format: cell-based, human; settings: for Concentration-dependent uptake (saturability): hCMEC/D3 cells, tested concentration range; for Association with H^+/OC antiporter: summary of uptake and inhibition studies in hCMEC/D3 cells; for Apparent Km / Jmax / Km: uptake into hCMEC/D3 cells; for Km: read-out: Apparent Km
# Experimental: as §1, §2
# To assess the concentration-dependent uptake, the uptake flux was fitted to the Michaelis–Menten equation, Eq. 1.1 Jss=Jmax[S]/Km+[S] where Jss represents flux under steady state, Jmax is the maximal flux, [S] is the substrate concentration, and Km is the Michaelis–Menten constant.
# The hCMEC/D3 cells were used for concentration-dependent uptake studies between passage 21–23 (pyrilamine), 11–13 (oxycodone), 12–14 (almotriptan), 16–18 (eletriptan), and 12–14 (sumatriptan).
# (§3) The cells were permeabilized using 50% (v/v) acetonitrile (HPLC LC–MS grade, VWR International S.A.S, Soeborg, Denmark) in ultrapure water (ELGA, Buckinghamshire, England) for 10 min at room temperature. Thereafter, the cells were scraped off the bottom of the wells and transferred to HPLC vials. Samples from bidirectional transport experiments were transferred directly into HPLC vials. All samples were stored at – 18 °C for later analysis. Calibration curves with standards in the range of 1 or 5–1000 ng/mL were dissolved in 50% (v/v) acetonitrile in ultrapure water (ELGA, Buckinghamshire, England), or in hHBSS(-) for analysis of bidirectional transport samples.
# (§4) Liquid chromatography tandem mass spectrometry (LC–MS/MS) were performed using electrospray ionization in positive mode on a micromass Quattro micro™ API tandem quadrupole mass spectrometer (Waters, MA, USA) or an Ultivo triple quadrupole mass spectrometer (Agilent Technologies, CA, USA) coupled to Agilent HPLC system 1100 Series or 1260 Series (Agilent Technologies, CA, USA California), respectively. Applied columns were an InfinityLab Poroshell 120 EC-C18 (3.0 × 50 mm; 2.7 micron, Agilent Technologies, CA, USA) or a Kinetex 2.6 μm XB-C18 (100 Å, 100 × 4.6 mm, Phenomenex Inc., CA, USA). An overview of applied HPLC and MS/MS parameters can be found in Additional file 2 and Additional file 3, respectively. The data acquisition software was MassLynx (V4.1, Waters, MA, USA).
# The protein content of hCMEC/D3 cells was determined for normalization purposes. Cells were washed with ice-cold phosphate buffered saline following cell lysis in cell extraction buffer (FNN0011, Thermo Fisher Scientific, MA, USA) supplemented with 1 × cOmplete™ Protease Inhibitor Cocktail (04693116001, Roche, Basel, Schweiz), 1 mM phenylmethylsulfonyl fluoride, and […] for 30 min on ice.
# H^+/OC antiporter [3] = assay: Cellular uptake into hCMEC/D3 cells after intra- and extracellular pH manipulation; format: cell-based, human; settings: for Cellular uptake after intracellular alkalization: acute exposure to 30 mM NH4Cl vs control pH 7.4; for Cellular uptake at extracellular acidification: extracellular pH 6.8 vs pH 7.4; for Cellular uptake at extracellular alkalization: extracellular pH 8.2 vs pH 7.4; for Proton-gradient dependence of uptake: hCMEC/D3 cells; for Cellular uptake after intracellular acidification: preexposure to 30 mM NH4Cl followed by media change vs control
# [4] = Physicochemical properties extracted from databases
# From the text: Triptans are a relatively homogeneous group of drug compounds with similar physicochemical properties, including molecular weights < 400 g/mol and a low to moderate lipophilicity (cLogD values ranging from − 2.1–0.18). […] As a consequence, it is unlikely that triptans cross the brain microvascular endothelium through passive diffusion to a clinically relevant extent. Table 1 summarizes structures and physicochemical properties of the triptans, as well as oxycodone and pyrilamine, which are two prototypical H^+/OC antiporter substrates included in this study.
# H^+/OC antiporter [5] = assay: Cellular uptake into hCMEC/D3 cells in absence or presence of pyrilamine or oxycodone; format: cell-based, human; settings: for Inhibition by oxycodone (of the compound's uptake) / Inhibition by pyrilamine (of the compound's uptake): triptan 50 µM, asterisks = P level; for Inhibition by oxycodone (of the compound's uptake): 500 µM oxycodone; for Inhibition by pyrilamine (of the compound's uptake): 500 µM pyrilamine
# Experimental: as §2
# The hCMEC/D3 cells were used for time-dependent uptake studies between passage 3–5 (pyrilamine), 7–9 (oxycodone), 6–8 (almotriptan), and 24–31 (eletriptan).
# The hCMEC/D3 cells were used for uptake studies of almotriptan, eletriptan, and sumatriptan in the presence of pyrilamine and oxycodone between passage 21–23.
# as §3, §4
# P-gp = test system: P-gp; design: method as in PMID 12814962; settings: brain Kp in wild type and mdr1a knockout mice; cited from earlier work
# [6] = cited from earlier work; for Strongest basic pKa: extracted from DrugBank
# H^+/OC antiporter [7] = test system: H^+/OC antiporter; design: method as in PMID 35955563; settings: trans-stimulation in hCMEC/D3 cells; cited from earlier work
# [8] = test system: organic cation transporter 1 (OCT1); design: method as in PMID 35955563; settings: cited from earlier work
# [9] = read-out: Apparent IC50 on [^3H]-pyrilamine uptake, [^3H]-pyrilamine 1 µCi/mL, 48 nM
# [10] = [^3H]-pyrilamine 1 µCi/mL, 48 nM, read-out: Apparent IC50 on [^3H]-pyrilamine uptake
compound,measurement,setting,value
CNS(=O)(=O)Cc1ccc2[nH]cc(CCN(C)C)c2c1 [Sumatriptan],IC50,H^+/OC antiporter [1]; [9],1460 ± 189 µM
same,Concentration-dependent uptake (saturability),H^+/OC antiporter [2],linear increase as function of increasing concentrations
same,Association with H^+/OC antiporter,H^+/OC antiporter [2],(substrate) very poor inhibitor
same,Apparent Km,H^+/OC antiporter [2],not saturable (in tested range)
same,Cellular uptake after intracellular alkalization,H^+/OC antiporter [3],decreased
same,Cellular uptake at extracellular acidification,H^+/OC antiporter [3],reduced
same,Cellular uptake at extracellular alkalization,H^+/OC antiporter [3],increased
same,Proton-gradient dependence of uptake,H^+/OC antiporter [3],yes
same,Cellular uptake after intracellular acidification,H^+/OC antiporter [3],decreased uptake
same,Overall charge pH 7.4,[4],Positive
same,Inhibition by oxycodone (of the compound's uptake),H^+/OC antiporter [5],yes (***)
same,Inhibition by oxycodone (of the compound's uptake),H^+/OC antiporter [5]; listed as sumatriptan,inhibited the uptake of sumatriptan
same,Inhibition by pyrilamine (of the compound's uptake),H^+/OC antiporter [5],yes (**)
same,Inhibition by pyrilamine (of the compound's uptake),H^+/OC antiporter [5]; listed as sumatriptan,inhibited the uptake of sumatriptan
CNS(=O)(=O)CCc1ccc2[nH]cc(C3CCN(C)CC3)c2c1 [Naratriptan],P-gp substrate,P-gp,substrates of P-gp
same,IC50,H^+/OC antiporter [1]; [10],460 ± 41 µM
same,Strongest basic pKa,[6],9.2
same,Overall charge pH 7.4,[4],Positive
CN[C@@H]1CCc2[nH]c3ccc(C(N)=O)cc3c2C1 [Frovatriptan],H^+/OC antiporter substrate,H^+/OC antiporter [7],did not appear to be H^+/OC antiporter substrate candidates
same,Apparent IC50 on [^3H]-pyrilamine uptake,"H^+/OC antiporter [1]; [^3H]-pyrilamine 1 µCi/mL, 48 nM",did not exhibit sufficient inhibition
same,OCT1 substrate,[8],substrates of OCT1
same,cLogD pH 7.4,[6],− 1.5
same,Overall charge pH 7.4,[4],Positive
CN(C)CCc1c[nH]c2ccc(CS(=O)(=O)N3CCCC3)cc12 [Almotriptan],IC50,H^+/OC antiporter [1]; [10],~305 µM and 305 µM
same,Strongest basic pKa,[6],9.6
same,cLogD pH 7.4,[6]; extracted from ChemSpider,0.3
same,Concentration-dependent uptake (saturability),H^+/OC antiporter [2],did not show saturable uptake
same,Association with H^+/OC antiporter,H^+/OC antiporter [2],(substrate) decent inhibitor
same,Apparent Km,H^+/OC antiporter [2],not saturable (in tested range)
same,Cellular uptake after intracellular alkalization,H^+/OC antiporter [3],decreased
same,Cellular uptake at extracellular acidification,H^+/OC antiporter [3],reduced
same,Cellular uptake at extracellular alkalization,H^+/OC antiporter [3],increased
same,Proton-gradient dependence of uptake,H^+/OC antiporter [3],yes
same,Cellular uptake after intracellular acidification,H^+/OC antiporter [3],statistically significant increase
same,Overall charge pH 7.4,[4],Positive
same,Inhibition by oxycodone (of the compound's uptake),H^+/OC antiporter [5],no
same,Inhibition by oxycodone (of the compound's uptake),H^+/OC antiporter [5]; listed as almotriptan,did not inhibit
same,Inhibition by pyrilamine (of the compound's uptake),H^+/OC antiporter [5],slightly inhibited; also recorded: yes (*)
COc1ccc2c3c1O[C@H]1C(=O)CC[C@@]4(O)[C@@H](C2)N(C)CC[C@]314 [Oxycodone],IC50,H^+/OC antiporter [1]; [9],225 ± 57 µM
same,IC50,"H^+/OC antiporter [1]; read-out: Apparent IC50 on [^3H]-pyrilamine uptake, [^3H]-pyrilamine 1 µCi/mL, 48 nM, listed as oxycodone",~225 µM
same,Strongest basic pKa,[6],8.8
same,cLogD pH 7.4,[6]; extracted from ChemSpider,0.5
same,Jmax,H^+/OC antiporter [2],5.3 ± 1.0 nmol·min^−1·mg protein^−1
same,Km,H^+/OC antiporter [2]; listed as oxycodone,~130 µM
same,Km,H^+/OC antiporter [2],130 ± 57 µM
same,Cellular uptake after intracellular alkalization,H^+/OC antiporter [3],reduced cellular uptake
same,Cellular uptake at extracellular acidification,H^+/OC antiporter [3],reduced cellular uptake
same,Cellular uptake at extracellular alkalization,H^+/OC antiporter [3],increased cellular uptake
same,Cellular uptake after intracellular acidification,H^+/OC antiporter [3],increased cellular uptake
same,Overall charge pH 7.4,[4],Positive
same,Time-dependent uptake in presence of 1000 µM pyrilamine,H^+/OC antiporter [5]; oxycodone 500 µM,reduced
COc1ccc(CN(CCN(C)C)c2ccccn2)cc1 [Pyrilamine],IC50,"H^+/OC antiporter [1]; [^3H]-pyrilamine 1 µCi/mL, 48 nM, listed as pyrilamine, read-out: Apparent IC50 on [^3H]-pyrilamine uptake",~11 µM
same,IC50,H^+/OC antiporter [1]; [10],11 ± 6 µM
same,cLogD pH 7.4,[6],1.1
same,Jmax,H^+/OC antiporter [2],5.1 ± 0.7 nmol·min^−1·mg protein^−1
same,Km,H^+/OC antiporter [2]; listed as pyrilamine,~93 µM
same,Km,H^+/OC antiporter [2],93 ± 17 µM
same,Cellular uptake after intracellular alkalization,H^+/OC antiporter [3],reduced cellular uptake
same,Cellular uptake at extracellular acidification,H^+/OC antiporter [3],reduced cellular uptake
same,Cellular uptake at extracellular alkalization,H^+/OC antiporter [3],increased cellular uptake
same,Cellular uptake after intracellular acidification,H^+/OC antiporter [3],increased cellular uptake
same,Overall charge pH 7.4,[4],Positive
same,Time-dependent uptake in presence of 500 µM oxycodone,H^+/OC antiporter [5]; [^3H]-pyrilamine 48 nM,reduced
CN(C)CCc1c[nH]c2ccc(Cn3cncn3)cc12 [Rizatriptan],P-gp substrate,P-gp,substrates of P-gp
same,IC50,H^+/OC antiporter [1]; [10],719 ± 243 µM
same,cLogD pH 7.4,[6],0.04
same,Overall charge pH 7.4,[4],Positive
